Reference: ChEMBL document CHEMBL1201862, “PubChem BioAssay data set” (2004)
Blank lines part the entries; values can stand above or below the compound they belong to. Activity calls are given as the source filed them.

Key:
[1] = biological target: Diacylglycerol lipase-beta (Mus musculus, UniProt Q91WC9); test: Late stage assay provider results from the probe development effort to identify inhibitors of diacylglycerol lipase, beta (DAGLb): fluorescence-based dose-response biochemical gel-based competitive Activity-Based Protein Profiling (ABPP) inhibition of DAGLb in vitro.; format: functional
[2] = biological target: Aryl hydrocarbon receptor (Homo sapiens, UniProt P35869); details: Potency;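 further: confirmatory quantitative high-throughput screen measuring activation of the AhR signaling pathway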
Protein Wnt-3a = Protein Wnt-3a (Mus musculus, UniProt P27467); test: Wnt3a-driven reporter signaling inhibition, dose response, selectivity assay for Gli-SUFU antagonist project, Wnt-LIGHT cells, luminescence (AID 651570); format: functional; details: read-out: IC50_Mean;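 further: Wnt-LIGHT reporter cells stimulated with conditioned medium from Wnt3a-producing cells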
Beta Lactamase = Beta Lactamase (Pseudomonas aeruginosa, UniProt Q932Y6); test: beta-lactamase reporter inhibitor potency, dose response, artefact control for TLR9-MyD88 binding inhibitor project, BLA reporter cells, FRET fluorescence (AID 588341); format: cell-based;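 further: cell based assay in CHO-K1 cells stably expressing beta-lactamase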
CHO = test: cytotoxicity in TLR9-MyD88 CHO cells, dose response, cytotoxicity control for TLR9-MyD88 binding inhibitor project, cell-based, luminescence (AID 588339); format: functional, hamster; details: Cricetulus griseus;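 further: CHO cells stably coexpressing TLR9 and MyD88 fusions from primary screen; compound exposure lasted 48 hours before viability readout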
Cysteine protease ATG4B = biological target: T1, Cysteine protease ATG4B (Homo sapiens, UniProt Q9Y4P1); format: functional;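 further: Fluorescence-based dose-response confirmation assay measuring inhibition of ATG4B activity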
T1 sequence (Q9Y4P1 whole entry): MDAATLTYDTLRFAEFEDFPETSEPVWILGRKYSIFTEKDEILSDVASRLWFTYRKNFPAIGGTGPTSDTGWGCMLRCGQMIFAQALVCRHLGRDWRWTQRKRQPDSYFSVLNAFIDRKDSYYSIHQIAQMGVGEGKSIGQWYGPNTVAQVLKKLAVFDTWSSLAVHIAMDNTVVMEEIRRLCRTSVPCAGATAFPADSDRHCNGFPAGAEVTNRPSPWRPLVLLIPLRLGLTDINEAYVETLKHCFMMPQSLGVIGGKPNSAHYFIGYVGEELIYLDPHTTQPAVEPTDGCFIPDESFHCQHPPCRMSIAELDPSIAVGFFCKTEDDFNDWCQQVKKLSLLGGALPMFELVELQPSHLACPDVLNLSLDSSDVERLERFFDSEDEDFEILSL

Phospholipase A2 = Phospholipase A2 (Homo sapiens, UniProt P04054); format: functional;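 further: confirmatory dose-response counterscreen on phospholipase A2, testing hits that came from an ultra-high-throughput screen for ATG4B inhibitors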
[3] = biological target: T2, ATP-dependent translocase ABCB1 (Homo sapiens, UniProt P08183); test: ABCG2 efflux pump inhibitor potency, dose response, Ig-MXP3 cells, JC-1, flow cytometry, set 2 (AID 504566); format: functional; details: read-out: EC50_MICROM_;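 further: flow cytometry median green fluorescence of retained JC-1 dye; potency of efflux pump inhibition measured as rising substrate retention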
[4] = biological target: T2, ATP-dependent translocase ABCB1; test: ABCB1 efflux inhibitor potency, dose response, Jurkat-DNR cells, JC-1, flow cytometry, set 2 (AID 504569); format: functional; details: read-out: EC50_MICROM_;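 further: potency of pump inhibitors that raise cellular JC-1 green fluorescence up to the nicardipine level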
[5] = biological target: T3, Protein disulfide-isomerase (Homo sapiens, UniProt P07237); test: PDI inhibitors, insulin aggregation turbidity, dose response, biochemical, absorbance, cherry-picked samples (AID 602350); format: functional
[6] = biological target: T3, Protein disulfide-isomerase; test: PDI inhibitors, insulin turbidity readout, dose response, biochemical, absorbance, cherry-picked samples, set 2 (AID 624274); format: functional

T3 sequence (P07237 whole entry): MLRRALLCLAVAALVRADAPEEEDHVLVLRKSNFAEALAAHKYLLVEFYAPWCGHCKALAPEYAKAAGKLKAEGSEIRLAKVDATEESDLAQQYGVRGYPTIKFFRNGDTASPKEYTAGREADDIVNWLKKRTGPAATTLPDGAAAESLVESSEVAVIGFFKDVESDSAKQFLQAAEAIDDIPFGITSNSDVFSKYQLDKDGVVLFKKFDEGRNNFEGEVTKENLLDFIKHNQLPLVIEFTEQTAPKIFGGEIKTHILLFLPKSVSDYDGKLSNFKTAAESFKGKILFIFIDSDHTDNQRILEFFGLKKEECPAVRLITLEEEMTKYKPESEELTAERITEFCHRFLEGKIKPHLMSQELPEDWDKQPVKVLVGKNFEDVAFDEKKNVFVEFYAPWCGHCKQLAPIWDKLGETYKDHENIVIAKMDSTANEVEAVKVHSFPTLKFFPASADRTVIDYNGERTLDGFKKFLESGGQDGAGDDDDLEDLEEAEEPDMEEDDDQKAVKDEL
T2 sequence (P08183 whole entry): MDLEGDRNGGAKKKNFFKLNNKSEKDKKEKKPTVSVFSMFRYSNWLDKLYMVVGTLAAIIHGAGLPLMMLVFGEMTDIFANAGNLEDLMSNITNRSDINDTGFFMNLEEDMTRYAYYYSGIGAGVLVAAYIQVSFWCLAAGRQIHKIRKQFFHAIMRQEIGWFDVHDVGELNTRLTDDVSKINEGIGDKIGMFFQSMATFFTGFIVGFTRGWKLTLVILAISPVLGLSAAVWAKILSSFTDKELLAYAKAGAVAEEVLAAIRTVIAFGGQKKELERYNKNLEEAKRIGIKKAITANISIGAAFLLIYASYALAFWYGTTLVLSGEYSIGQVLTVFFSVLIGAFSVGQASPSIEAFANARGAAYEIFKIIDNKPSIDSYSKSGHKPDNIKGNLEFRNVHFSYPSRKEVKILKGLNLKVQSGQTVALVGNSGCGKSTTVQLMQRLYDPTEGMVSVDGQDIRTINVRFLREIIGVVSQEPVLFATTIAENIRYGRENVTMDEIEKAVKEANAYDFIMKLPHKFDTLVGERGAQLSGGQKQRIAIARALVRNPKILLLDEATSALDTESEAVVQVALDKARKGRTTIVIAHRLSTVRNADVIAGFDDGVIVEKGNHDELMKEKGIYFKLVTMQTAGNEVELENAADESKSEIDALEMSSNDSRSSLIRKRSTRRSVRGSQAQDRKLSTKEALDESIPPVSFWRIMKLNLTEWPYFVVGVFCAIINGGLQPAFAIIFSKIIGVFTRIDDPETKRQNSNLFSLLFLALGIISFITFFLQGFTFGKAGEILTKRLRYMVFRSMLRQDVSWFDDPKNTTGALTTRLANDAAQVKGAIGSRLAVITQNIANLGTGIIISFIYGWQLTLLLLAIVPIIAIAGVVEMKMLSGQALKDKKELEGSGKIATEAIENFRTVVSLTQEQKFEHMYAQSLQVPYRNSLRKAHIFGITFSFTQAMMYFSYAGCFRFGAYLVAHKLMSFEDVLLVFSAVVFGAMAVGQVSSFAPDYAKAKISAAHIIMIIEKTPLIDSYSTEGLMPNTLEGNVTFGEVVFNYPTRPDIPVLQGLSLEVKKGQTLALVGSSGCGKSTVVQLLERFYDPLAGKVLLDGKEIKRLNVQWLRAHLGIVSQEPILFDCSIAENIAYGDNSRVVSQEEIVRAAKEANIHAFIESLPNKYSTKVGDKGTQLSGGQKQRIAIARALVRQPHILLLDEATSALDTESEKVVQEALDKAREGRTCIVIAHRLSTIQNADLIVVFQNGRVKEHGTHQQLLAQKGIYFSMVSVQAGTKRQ
Chain of Beta Lactamase (Q932Y6 whole entry, the tested form may be a part): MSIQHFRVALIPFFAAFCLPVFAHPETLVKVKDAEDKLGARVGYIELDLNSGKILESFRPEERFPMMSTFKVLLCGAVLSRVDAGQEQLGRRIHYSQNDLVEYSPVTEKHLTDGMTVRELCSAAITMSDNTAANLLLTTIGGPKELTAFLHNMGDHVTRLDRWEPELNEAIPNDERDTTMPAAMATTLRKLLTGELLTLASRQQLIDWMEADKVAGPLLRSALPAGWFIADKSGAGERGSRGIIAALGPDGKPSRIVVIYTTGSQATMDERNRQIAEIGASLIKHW
Chain of Protein Wnt-3a (P27467 whole entry): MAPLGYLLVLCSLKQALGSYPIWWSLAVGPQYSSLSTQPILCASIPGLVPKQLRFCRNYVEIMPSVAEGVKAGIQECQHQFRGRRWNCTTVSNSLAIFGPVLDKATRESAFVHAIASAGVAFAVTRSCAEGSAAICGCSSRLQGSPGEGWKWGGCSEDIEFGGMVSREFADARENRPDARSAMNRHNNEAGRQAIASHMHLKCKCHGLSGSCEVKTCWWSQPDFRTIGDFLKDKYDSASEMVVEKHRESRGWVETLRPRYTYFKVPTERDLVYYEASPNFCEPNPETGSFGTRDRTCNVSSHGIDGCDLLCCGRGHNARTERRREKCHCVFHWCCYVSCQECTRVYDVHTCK
Chain of Diacylglycerol lipase-beta (Q91WC9 whole entry): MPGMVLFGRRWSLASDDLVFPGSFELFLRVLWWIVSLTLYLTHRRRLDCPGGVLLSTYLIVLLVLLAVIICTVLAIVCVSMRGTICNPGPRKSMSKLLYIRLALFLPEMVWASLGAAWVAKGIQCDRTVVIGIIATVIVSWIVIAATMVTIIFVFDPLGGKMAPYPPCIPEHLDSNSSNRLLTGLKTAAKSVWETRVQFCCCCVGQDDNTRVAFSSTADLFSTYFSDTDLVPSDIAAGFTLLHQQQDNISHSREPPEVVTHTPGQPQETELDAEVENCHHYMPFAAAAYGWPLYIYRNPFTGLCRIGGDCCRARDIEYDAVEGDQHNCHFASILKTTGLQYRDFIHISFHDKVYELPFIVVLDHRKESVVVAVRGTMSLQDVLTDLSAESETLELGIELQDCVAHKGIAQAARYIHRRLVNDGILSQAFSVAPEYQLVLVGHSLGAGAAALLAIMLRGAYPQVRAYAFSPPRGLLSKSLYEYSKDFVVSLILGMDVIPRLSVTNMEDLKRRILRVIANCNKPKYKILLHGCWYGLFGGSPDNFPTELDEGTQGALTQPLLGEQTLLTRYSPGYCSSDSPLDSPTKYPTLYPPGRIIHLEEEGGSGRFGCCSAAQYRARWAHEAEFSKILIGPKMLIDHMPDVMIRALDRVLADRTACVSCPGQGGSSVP
Chain of Phospholipase A2 (P04054 whole entry): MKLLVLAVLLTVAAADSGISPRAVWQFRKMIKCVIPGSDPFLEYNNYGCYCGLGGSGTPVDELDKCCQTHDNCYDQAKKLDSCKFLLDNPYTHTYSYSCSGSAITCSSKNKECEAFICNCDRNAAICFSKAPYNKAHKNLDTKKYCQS
Chain of Aryl hydrocarbon receptor (P35869 whole entry): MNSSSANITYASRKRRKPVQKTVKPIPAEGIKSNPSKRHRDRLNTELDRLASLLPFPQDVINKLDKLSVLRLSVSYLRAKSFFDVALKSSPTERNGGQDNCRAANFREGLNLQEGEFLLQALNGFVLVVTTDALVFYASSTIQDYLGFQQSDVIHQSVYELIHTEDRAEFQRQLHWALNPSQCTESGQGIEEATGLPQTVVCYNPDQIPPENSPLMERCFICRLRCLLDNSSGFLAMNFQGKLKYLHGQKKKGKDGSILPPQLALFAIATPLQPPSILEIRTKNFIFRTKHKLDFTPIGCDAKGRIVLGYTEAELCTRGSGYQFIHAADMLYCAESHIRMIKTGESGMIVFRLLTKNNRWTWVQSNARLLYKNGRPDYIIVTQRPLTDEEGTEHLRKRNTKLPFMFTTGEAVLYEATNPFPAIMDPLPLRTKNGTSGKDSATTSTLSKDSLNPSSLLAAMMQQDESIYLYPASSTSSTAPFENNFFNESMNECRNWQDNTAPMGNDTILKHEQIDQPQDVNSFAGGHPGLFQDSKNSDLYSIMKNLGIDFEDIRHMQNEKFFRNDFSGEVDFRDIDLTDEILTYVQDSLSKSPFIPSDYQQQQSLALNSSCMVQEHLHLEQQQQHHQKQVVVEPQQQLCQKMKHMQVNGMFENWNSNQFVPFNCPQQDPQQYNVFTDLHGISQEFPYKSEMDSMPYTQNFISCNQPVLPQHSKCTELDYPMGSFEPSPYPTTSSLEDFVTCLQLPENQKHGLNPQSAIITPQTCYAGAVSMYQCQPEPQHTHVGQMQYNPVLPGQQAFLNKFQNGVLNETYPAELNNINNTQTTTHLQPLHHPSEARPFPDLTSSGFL

SMILES: CCCCOCC1CO1 (stereo unspecified)
- AC50 [2]: 56.2 µM (inconclusive)

SMILES: O=[N+]([O-])c1ccc(-c2ccc(/C=N/Nc3nc(NCc4ccccc4)nc(N4CCOCC4)n3)o2)cc1
- IC50 (Beta Lactamase): 4.69 µM (active)
- IC50 (CHO): 15.9 µM (inactive)

SMILES: CC1(C)C2CCC1(C)C1(C2)NC(=O)c2ccccc2O1 (stereo unspecified)
- IC50 (Cysteine protease ATG4B): 14.8 µM (active)
- IC50 (Phospholipase A2): 11 µM (active)

SMILES: C[C@H]1CN([C@@H](C)CO)C(=O)c2cccc(NS(C)(=O)=O)c2O[C@H]1CN(C)Cc1ccc(Oc2ccccc2)cc1
- AC50 [5]: < 0.003 µM (active)
- AC50 [6]: 0.003 µM (active)

Other lines, results leading:

- IC50 [1]: 0.058 µM (active)
SMILES: O=C(N1CCCCC1Cc1ccccc1)n1cc(-c2ccc(-c3ccccc3C(F)(F)F)cc2)nn1 (stereo unspecified)

- IC50 (Protein Wnt-3a): 14.1 µM (active)
SMILES: Cc1cc(Nc2ccc([N+](=O)[O-])cc2)c2ccccc2n1

- EC50 [3]: 1 µM (active)
- EC50 [4]: 9.03 µM (active)
SMILES: O=C(c1ccoc1)N1CCN(c2cc(-c3ccccc3)nc3cc(-c4cccc(Cl)c4)nn23)CC1
